# Non-standard residues stand in square brackets, D forms with d. Residues, ends and D or L forms follow the SMILES beside them. *: point of attachment. X2 = NC(=O)OCCOCCOCCOCCOCCOCCOCCOCCOCCOCCOCCN*; X1 = NCCOCCOCCOCCOCCOCCOCCOCCOCCOCCOCCOC(=O)*; Hexanoyl = CCCCCC(=O)*; Ahx = NCCCCCC(=O)O
# Test system: S. aureus JAR
# Type: cell-based
# Details: JAR, 2 h
# Description: S. aureus JAR is described in Campoccia et al. (Int. J. Artif. Organs, 2008 September; 31(9):841-7).
# For the in vitro killing assay with P10 variants, S. aureus JAR ([…] CFU/ml) were incubated for 2 hours at 37° C. with various concentrations of the peptides in PBS or in PBS/human plasma (1/1, v/v). […] The LC99.9 is the average value of two independent experiments.
SMILES,LC99.9 (μM) (50% plasma),LC99.9 (μM) (PBS)
"CC[C@H](C)[C@H](NC(=O)[C@H](CCCCN)NC(=O)[C@H](CCCCN)NC(=O)[C@H](Cc1ccc(O)cc1)NC(=O)[C@H](CCC(=O)O)NC(=O)[C@H](CCCNC(=N)N)NC(=O)[C@H](C)NC(=O)[C@H](CC(C)C)NC(C)=O)C(=O)N[C@H](C(=O)N[C@@H](CCC(=O)O)C(=O)N[C@@H](CCCCN)C(=O)N[C@@H](CC(C)C)C(=O)N[C@@H](CCCCN)C(=O)N[C@@H](CCCNC(=N)N)C(=O)N[C@@H](Cc1c[nH]c2ccccc12)C(=O)N[C@@H](CC(C)C)C(=O)N[C@@H](CCCNC(=N)N)C(=O)N[C@@H](CCC(N)=O)C(=O)N[C@H](C(=O)N[C@H](CC(C)C)C(=O)N[C@@H](CCCNC(=N)N)C(=O)N[C@H](C(=O)N[C@@H](CC(C)C)C(=O)N[C@@H](CCCNC(=N)N)C(N)=O)[C@@H](C)O)C(C)C)C(C)C [Peptide 1301-20, JLAREYKKIVEKLKRWLRQVlRTLRB] (Ac-LAREYKKIVEKLKRWLRQV[dL]RTLR-NH2)",38.4 µM,0.6 µM
"CC[C@H](C)[C@H](NC(=O)[C@H](CCCCN)NC(=O)[C@H](CCCCN)NC(=O)[C@H](Cc1ccc(O)cc1)NC(=O)[C@H](CCC(=O)O)NC(=O)[C@H](CCCNC(=N)N)NC(=O)[C@H](C)NC(=O)[C@H](CC(C)C)NC(C)=O)C(=O)N[C@H](C(=O)N[C@@H](CCC(=O)O)C(=O)N[C@@H](CCCCN)C(=O)N[C@@H](CC(C)C)C(=O)N[C@@H](CCCCN)C(=O)N[C@@H](CCCNC(=N)N)C(=O)N[C@@H](Cc1c[nH]c2ccccc12)C(=O)N[C@@H](CC(C)C)C(=O)N[C@@H](CCCNC(=N)N)C(=O)N[C@@H](CCC(N)=O)C(=O)N[C@H](C(=O)N[C@@H](CC(C)C)C(=O)N[C@H](CCCNC(=N)N)C(=O)N[C@H](C(=O)N[C@@H](CC(C)C)C(=O)N[C@@H](CCCNC(=N)N)C(N)=O)[C@@H](C)O)C(C)C)C(C)C [Peptide 1301-21, JLAREYKKIVEKLKRWLRQVLrTLRB] (Ac-LAREYKKIVEKLKRWLRQVL[dR]TLR-NH2)",38.4 µM,0.6 µM
"CC[C@H](C)[C@H](NC(=O)[C@H](CCCCN)NC(=O)[C@H](CCCCN)NC(=O)[C@H](Cc1ccc(O)cc1)NC(=O)[C@H](CCC(=O)O)NC(=O)[C@H](CCCNC(=N)N)NC(=O)[C@H](C)NC(=O)[C@H](CC(C)C)NC(C)=O)C(=O)N[C@H](C(=O)N[C@@H](CCC(=O)O)C(=O)N[C@@H](CCCCN)C(=O)N[C@@H](CC(C)C)C(=O)N[C@@H](CCCCN)C(=O)N[C@@H](CCCNC(=N)N)C(=O)N[C@@H](Cc1c[nH]c2ccccc12)C(=O)N[C@@H](CC(C)C)C(=O)N[C@@H](CCCNC(=N)N)C(=O)N[C@@H](CCC(N)=O)C(=O)N[C@H](C(=O)N[C@@H](CC(C)C)C(=O)N[C@@H](CCCNC(=N)N)C(=O)N[C@@H](C(=O)N[C@@H](CC(C)C)C(=O)N[C@@H](CCCNC(=N)N)C(N)=O)[C@H](C)O)C(C)C)C(C)C [Peptide 1301-22, JLAREYKKIVEKLKRWLRQVLRtLRB] (Ac-LAREYKKIVEKLKRWLRQVLR[dT]LR-NH2)",38.4 µM,0.6 µM
"CC[C@H](C)[C@H](NC(=O)[C@H](CCCCN)NC(=O)[C@H](CCCCN)NC(=O)[C@H](Cc1ccc(O)cc1)NC(=O)[C@H](CCC(=O)O)NC(=O)[C@H](CCCNC(=N)N)NC(=O)[C@H](C)NC(=O)[C@H](CC(C)C)NC(C)=O)C(=O)N[C@H](C(=O)N[C@@H](CCC(=O)O)C(=O)N[C@@H](CCCCN)C(=O)N[C@@H](CC(C)C)C(=O)N[C@@H](CCCCN)C(=O)N[C@@H](CCCNC(=N)N)C(=O)N[C@@H](Cc1c[nH]c2ccccc12)C(=O)N[C@@H](CC(C)C)C(=O)N[C@@H](CCCNC(=N)N)C(=O)N[C@@H](CCC(N)=O)C(=O)N[C@H](C(=O)N[C@@H](CC(C)C)C(=O)N[C@@H](CCCNC(=N)N)C(=O)N[C@H](C(=O)N[C@H](CC(C)C)C(=O)N[C@@H](CCCNC(=N)N)C(N)=O)[C@@H](C)O)C(C)C)C(C)C [Peptide 1301-23, JLAREYKKIVEKLKRWLRQVLRTlRB] (Ac-LAREYKKIVEKLKRWLRQVLRT[dL]R-NH2)",32.0 µM,0.4 µM
"CC[C@H](C)[C@H](NC(=O)[C@H](CCCCN)NC(=O)[C@H](CCCCN)NC(=O)[C@H](Cc1ccc(O)cc1)NC(=O)[C@H](CCC(=O)O)NC(=O)[C@H](CCCNC(=N)N)NC(=O)[C@H](C)NC(=O)[C@H](CC(C)C)NC(C)=O)C(=O)N[C@H](C(=O)N[C@@H](CCC(=O)O)C(=O)N[C@@H](CCCCN)C(=O)N[C@@H](CC(C)C)C(=O)N[C@@H](CCCCN)C(=O)N[C@@H](CCCNC(=N)N)C(=O)N[C@@H](Cc1c[nH]c2ccccc12)C(=O)N[C@@H](CC(C)C)C(=O)N[C@@H](CCCNC(=N)N)C(=O)N[C@@H](CCC(N)=O)C(=O)N[C@H](C(=O)N[C@@H](CC(C)C)C(=O)N[C@@H](CCCNC(=N)N)C(=O)N[C@H](C(=O)N[C@@H](CC(C)C)C(=O)N[C@H](CCCNC(=N)N)C(N)=O)[C@@H](C)O)C(C)C)C(C)C [Peptide 1301-24, JLAREYKKIVEKLKRWLRQVLRTLrB] (Ac-LAREYKKIVEKLKRWLRQVLRTL[dR]-NH2)",19.2 µM,0.6 µM
"CC[C@H](C)[C@H](NC(=O)[C@H](CCCCN)NC(=O)[C@H](CCCCN)NC(=O)[C@H](Cc1ccc(O)cc1)NC(=O)[C@H](CCC(=O)O)NC(=O)[C@H](CCCNC(=N)N)NC(=O)[C@H](C)NC(=O)[C@H](CC(C)C)NC(C)=O)C(=O)N[C@H](C(=O)N[C@@H](CCC(=O)O)C(=O)N[C@@H](CCCCN)C(=O)N[C@@H](CC(C)C)C(=O)N[C@@H](CCCCN)C(=O)N[C@@H](CCCNC(=N)N)C(=O)N[C@@H](Cc1c[nH]c2ccccc12)C(=O)N[C@@H](CC(C)C)C(=O)N[C@@H](CCCNC(=N)N)C(=O)N[C@@H](CCC(N)=O)C(=O)N[C@H](C(=O)N[C@@H](CC(C)C)C(=O)N[C@@H](CCCNC(=N)N)C(=O)N[C@H](C(=O)N[C@@H](CC(C)C)C(=O)N[C@@H](CCCNC(=N)N)C(=O)NCCCCCC(=O)NCCCCCC(N)=O)[C@@H](C)O)C(C)C)C(C)C [Peptide 1302-4, JLAREYKKIVEKLKRWLRQVLRTLRZZB] (Ac-LAREYKKIVEKLKRWLRQVLRTLR[Ahx][Ahx]-NH2)",38.4 µM,0.8 µM
"CC[C@H](C)[C@H](NC(=O)[C@H](CCCCN)NC(=O)[C@H](CCCCN)NC(=O)[C@H](Cc1ccc(O)cc1)NC(=O)[C@H](CCC(=O)O)NC(=O)[C@H](CCCNC(=N)N)NC(=O)[C@H](C)NC(=O)[C@H](CC(C)C)NC(C)=O)C(=O)N[C@H](C(=O)N[C@@H](CCC(=O)O)C(=O)N[C@@H](CCCCN)C(=O)N[C@@H](CC(C)C)C(=O)N[C@@H](CCCCN)C(=O)N[C@@H](CCCNC(=N)N)C(=O)N[C@@H](Cc1c[nH]c2ccccc12)C(=O)N[C@@H](CC(C)C)C(=O)N[C@@H](CCCNC(=N)N)C(=O)N[C@@H](CCC(N)=O)C(=O)N[C@H](C(=O)N[C@@H](CC(C)C)C(=O)N[C@@H](CCCNC(=N)N)C(=O)N[C@H](C(=O)N[C@@H](CC(C)C)C(=O)N[C@@H](CCCNC(=N)N)C(=O)NCCOCCOCCOCCOCCOCCOCCOCCOCCOCCOCCOC(N)=O)[C@@H](C)O)C(C)C)C(C)C [Peptide 1302-5, JLAREYKKIVEKLKRWLRQVLRTLRoB] (Ac-LAREYKKIVEKLKRWLRQVLRTLR-X2)",102.4 µM,0.8 µM
"CC[C@H](C)[C@H](NC(=O)[C@H](CCCCN)NC(=O)[C@H](CCCCN)NC(=O)[C@H](Cc1ccc(O)cc1)NC(=O)[C@H](CCC(=O)O)NC(=O)[C@H](CCCNC(=N)N)NC(=O)[C@H](C)NC(=O)[C@H](CC(C)C)NC(C)=O)C(=O)N[C@H](C(=O)N[C@@H](CCC(=O)O)C(=O)N[C@@H](CCCCN)C(=O)N[C@@H](CC(C)C)C(=O)N[C@@H](CCCCN)C(=O)N[C@@H](CCCNC(=N)N)C(=O)N[C@@H](Cc1c[nH]c2ccccc12)C(=O)N[C@@H](CC(C)C)C(=O)N[C@@H](CCCNC(=N)N)C(=O)N[C@@H](CCC(N)=O)C(=O)N[C@H](C(=O)N[C@@H](CC(C)C)C(=O)N[C@@H](CCCNC(=N)N)C(=O)N[C@H](C(=O)N[C@@H](CC(C)C)C(=O)N[C@@H](CCCNC(=N)N)C(=O)NCCCCCC(N)=O)[C@@H](C)O)C(C)C)C(C)C [Peptide 1302-6, JLAREYKKIVEKLKRWLRQVLRTLRZB] (Ac-LAREYKKIVEKLKRWLRQVLRTLR[Ahx]-NH2)",38.4 µM,0.6 µM
"CC[C@H](C)[C@H](NC(=O)[C@H](CCCCN)NC(=O)[C@H](CCCCN)NC(=O)[C@H](Cc1ccc(O)cc1)NC(=O)[C@H](CCC(=O)O)NC(=O)[C@H](CCCNC(=N)N)NC(=O)[C@H](C)NC(=O)[C@H](CC(C)C)NC(=O)OCCOCCOCCOCCOCCOCCOCCOCCOCCOCCOCCN)C(=O)N[C@H](C(=O)N[C@@H](CCC(=O)O)C(=O)N[C@@H](CCCCN)C(=O)N[C@@H](CC(C)C)C(=O)N[C@@H](CCCCN)C(=O)N[C@@H](CCCNC(=N)N)C(=O)N[C@@H](Cc1c[nH]c2ccccc12)C(=O)N[C@@H](CC(C)C)C(=O)N[C@@H](CCCNC(=N)N)C(=O)N[C@@H](CCC(N)=O)C(=O)N[C@H](C(=O)N[C@@H](CC(C)C)C(=O)N[C@@H](CCCNC(=N)N)C(=O)N[C@H](C(=O)N[C@@H](CC(C)C)C(=O)N[C@@H](CCCNC(=N)N)C(N)=O)[C@@H](C)O)C(C)C)C(C)C [Peptide 1302-7, oLAREYKKIVEKLKRWLRQVLRTLRB] (X1-LAREYKKIVEKLKRWLRQVLRTLR-NH2; N-terminus assumed)",102.4 µM,1.6 µM
"CCCCCC(=O)N[C@@H](CC(C)C)C(=O)N[C@@H](C)C(=O)N[C@@H](CCCNC(=N)N)C(=O)N[C@@H](CCC(=O)O)C(=O)N[C@@H](Cc1ccc(O)cc1)C(=O)N[C@@H](CCCCN)C(=O)N[C@@H](CCCCN)C(=O)N[C@H](C(=O)N[C@H](C(=O)N[C@@H](CCC(=O)O)C(=O)N[C@@H](CCCCN)C(=O)N[C@@H](CC(C)C)C(=O)N[C@@H](CCCCN)C(=O)N[C@@H](CCCNC(=N)N)C(=O)N[C@@H](Cc1c[nH]c2ccccc12)C(=O)N[C@@H](CC(C)C)C(=O)N[C@@H](CCCNC(=N)N)C(=O)N[C@@H](CCC(N)=O)C(=O)N[C@H](C(=O)N[C@@H](CC(C)C)C(=O)N[C@@H](CCCNC(=N)N)C(=O)N[C@H](C(=O)N[C@@H](CC(C)C)C(=O)N[C@@H](CCCNC(=N)N)C(N)=O)[C@@H](C)O)C(C)C)C(C)C)[C@@H](C)CC [Peptide 1302-8, bLAREYKKIVEKLKRWLRQVLRTLRB] (Hexanoyl-LAREYKKIVEKLKRWLRQVLRTLR-NH2)",102.4 µM,1.2 µM

# Source: patent US9562085B2, “Antimicrobial peptide” (priority 2013, dated 2017)
